pKi: −log10 of the molar value. Activity calls are given as the source filed them. The rule behind the calls is not given here.
Key:
LNCaP [1] = assay: Growth inhibition of human LNCaP cells at 1.5 uM incubated for 72 hrs; type: functional, cell-based
U-937 [2] = assay: Induction of cell attachment in human U-937 cells at 1000 nM incubated for 72 hrs relative to control; type: functional
U-937 [3] = assay: Growth inhibition of human U-937 cells assessed as reduction in total cell number at 1 to 10 nM incubated for 72 hrs; type: functional, cell-based; conditions: dose 1-10 nM
U-937 [4] = assay: Growth inhibition of human U-937 cells assessed as reduction in total cell number at 1000 nM incubated for 72 hrs; type: functional, cell-based
U-937 [5] = assay: Growth inhibition of human U-937 cells assessed as reduction in total cell number at 100 nM incubated for 72 hrs; type: functional; conditions: read-out: GI
U-937 [6] = assay: Induction of cell attachment in human U-937 cells at 100 nM incubated for 72 hrs relative to control; type: functional
[7] = molecular target: Protein kinase C delta type (Homo sapiens, UniProt Q05655); assay: Binding affinity to PKCdelta (unknown origin) assessed as inhibition constant
U-937 [8] = assay: Induction of cell attachment in human U-937 cells at 1 to 100 nM incubated for 72 hrs relative to control; type: functional; conditions: dose 1-100 nM
U-937 [9] = assay: Induction of cell attachment in human U-937 cells at 100 nM incubated for 72 hrs; type: functional, cell-based
LNCaP [10] = assay: Growth inhibition of human LNCaP cells at 5 to 1500 nM incubated for 72 hrs; type: functional, cell-based; conditions: dose 5-1500 nM
U-937 [11] = assay: Induction of cell attachment in human U-937 cells at 1 to 100 nM incubated for 72 hrs; type: functional, cell-based; conditions: dose 1-100 nM
U-937 [12] = assay: Induction of cell attachment in human U-937 cells at 1 nM incubated for 72 hrs relative to control; type: functional
U-937 [13] = assay: Growth inhibition of human U-937 cells assessed as reduction in total cell number at 1 nM incubated for 72 hrs; type: functional; conditions: read-out: GI
LNCaP [14] = assay: Growth inhibition of human LNCaP cells at < 10 nM incubated for 72 hrs; type: functional, cell-based
U-937 [15] = assay: Induction of cell attachment in human U-937 cells at more than 10 nM incubated for 72 hrs relative to control; type: functional

Sequence of Protein kinase C delta type (Q05655 whole entry): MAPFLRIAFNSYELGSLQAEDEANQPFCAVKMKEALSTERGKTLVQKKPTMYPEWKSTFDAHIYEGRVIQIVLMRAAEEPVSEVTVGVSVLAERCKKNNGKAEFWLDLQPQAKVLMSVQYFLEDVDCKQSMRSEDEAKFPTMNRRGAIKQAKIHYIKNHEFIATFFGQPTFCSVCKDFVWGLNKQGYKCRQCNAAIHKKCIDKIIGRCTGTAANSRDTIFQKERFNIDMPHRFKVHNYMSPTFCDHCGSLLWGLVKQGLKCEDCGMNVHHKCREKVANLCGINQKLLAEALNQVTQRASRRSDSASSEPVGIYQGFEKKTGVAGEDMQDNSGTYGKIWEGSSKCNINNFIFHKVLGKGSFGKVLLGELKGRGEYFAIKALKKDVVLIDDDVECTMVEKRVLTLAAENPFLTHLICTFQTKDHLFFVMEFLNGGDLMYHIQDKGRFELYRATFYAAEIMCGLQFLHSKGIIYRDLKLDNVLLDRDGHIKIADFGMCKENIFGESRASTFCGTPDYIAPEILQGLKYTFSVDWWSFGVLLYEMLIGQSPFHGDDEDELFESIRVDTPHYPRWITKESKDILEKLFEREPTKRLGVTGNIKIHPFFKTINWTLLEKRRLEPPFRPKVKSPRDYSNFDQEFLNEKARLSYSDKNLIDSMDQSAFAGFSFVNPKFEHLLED

CCC/C=C/C=C/C(=O)O[C@H]1/C(=C/C(=O)OC)C[C@H]2C[C@H]([C@@H](C)O)OC(=O)C[C@H](O)C[C@@H]3C[C@H](OC(C)=O)C(C)(C)[C@](O)(C[C@@H]4C/C(=C/C(=O)OC)C[C@H](/C=C/C(C)(C)[C@]1(O)O2)O4)O3 [BRYOSTATIN 1]
growth inhibition (GI) (LNCaP [1]): inactive | Activity (U-937 [2]): 1.8% | growth inhibition (GI) (U-937 [3]): inactive | growth inhibition (GI) (U-937 [4]): Active

CC(C)[C@H]1C(=O)N[C@H](CO)Cc2c[nH]c3cccc(c23)N1C [INDOLACTUM]
inhibition of growth at 0.1 µM (U-937 [5]): 25.7% | Activity (U-937 [2]): 70.3% | Activity (U-937 [6]): 44.2%

CC(=O)n1cc2c3c(cccc31)N(C)[C@@H](C(C)C)C(=O)N[C@H](CO)C2
pKi [7]: 7.03 | Activity (U-937 [8]): <2% | Activity (U-937 [9]): Active | growth inhibition (GI) (LNCaP [10]): Active | Activity (U-937 [11]): inactive

CCCCCCCCCCCCCC(=O)O[C@H]1[C@H](C)[C@]2(O)[C@H](C=C(CO)C[C@@]3(O)C(=O)C(C)=C[C@H]23)[C@H]2C(C)(C)[C@@]12OC(C)=O
Activity (U-937 [12]): 85.4% | inhibition of growth at 0.001 µM (U-937 [13]): 21.5% | growth inhibition (GI) (LNCaP [14]): Active

C=C[C@@](C)(CCC=C(C)C)c1ccc2c3c(c[nH]c13)C[C@@H](CO)NC(=O)[C@H](C(C)C)N2C
Activity (U-937 [15]): >60%

C=CC(C)(C)c1ccc2c3c(c[nH]c13)C[C@@H](CO)NC(=O)[C@H](C(C)C)N2C [PENDOLMYCIN]
Activity (U-937 [15]): >60%

CC(C)[C@H]1C(=O)N[C@H](CO)Cc2cn(C(C)C)c3cccc(c23)N1C
pKi [7]: 7.49 | Activity (U-937 [2]): 6.5% | Activity (U-937 [8]): <2% | Activity (U-937 [9]): Active | growth inhibition (GI) (LNCaP [10]): Active | Activity (U-937 [11]): inactive
